Source: patent publication US20250197387A1, “BCL-XL DEGRADERS AND USES THEREOF” (Kymera Therapeutics, Inc., priority 2021, published 2025)
pIC50: −log10 of the molar value. Where two headings read alike, the source gives them in different places.

Legend:
Format in all cases: cell-based
MOLT-4 cells = test: CTG (CellTiter-Glo) cell viability assay, MOLT-4; details: 3 day incubation, read-out: CTG Cell Viability Assay - MOLT-4 3 day: Average external-IC50
How it was run: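 MOLT-4 and Caki-2 cells were seeded at 10,000 per well and treated with a 9-point, 1:3 dilution series from 10 μM top concentration (0.2% DMSO). After 3 days at 37 °C, 5% CO2, viability was read by CellTiter-Glo luminescence and IC50 fitted by three-parameter logistic.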

Caki-2 cells = test: CTG (CellTiter-Glo) cell viability assay, Caki-2; details: Homo sapiens, 72 h, 3 day incubation, read-out: CTG Chempartner - Caki-2 3 day: Average external-IC50
Method: Compound-mediated viability effect on MOLT-4 and Caki-2 was quantitatively determined using the CellTiter-Glo® Luminescent Cell Viability Assay kit from Promega (Catalog number G7570) following manufacturer's recommended procedures. Briefly, MOLT-4 and Caki-2 cells were seeded into 384 well plates (Grenier Bio-One, Catalog number 781080) with a density of 10,000 cells per well. Compounds were then added to the assay plate with final top concentration of 10 μM and 1:3 dilution series with total of 9 doses. The final DMSO concentration is normalized to 0.2%. The assay plates were incubated at 37° C., for 3 days under 5% CO2. Then the assay plate was equilibrated at room temperature for 10 minutes. To determine cell viability, 30 uL CellTiter Glo reagent was added to each well and the assay plate was centrifuged at 1000 rpm for 30 second, incubated at room temperature for 10 min, and analyzed by detecting the luminescence using a multimode plate reader (EnVision 2105, PerkinElmer). The data was then analyzed by software Prism 7.0 from GraphPad and the dose response curves are fit using a three-parameter logistic equation to calculate IC50.
The letter codes for MOLT-4 IC50 include: A (<0.1 μM); B (0.1-1.0 μM); C (>1.0-3.0 μM); and D (>3.0 μM). The letter codes for Caki-2 IC50 include: A (<0.1 μM); B (0.1-1.0 μM); C (>1.0-10.0 μM); and D (>10.0 μM).

BCL-XL [1] = molecular target: T1, BCL-XL (Homo sapiens, UniProt Q07817); test: BCL-XL degradation assay, western blot in MOLT-4 cells, 16 h; details: western blot, MOLT-4 cells, 16 h; for Dmax: read-out: Bcl-xL WB in MOLT-4 degradation 16 h: Average Dmax %; for DC50: read-out: Bcl-xL WB in MOLT-4 degradation 16 h: Mean external-Abs DC50
T1 construct: endogenous in cells; host or cells: MOLT-4
How it was run: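 MOLT-4 cells treated with compounds at 0.02-10 μM final for 16 hr at 37° C; lysates analysed by western blot with anti-BCL-xL, beta-actin and GAPDH loading controls, infrared imaging and densitometry; DC50 and Dmax % reported as letter codes.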

BCL-XL [2] = molecular target: T1, BCL-XL; test: Bcl-xL ELISA degradation in MOLT-4 cells, 6 h; details: for DC50: read-out: Bcl-xL ELISA in MOLT-4 degradation 6 h: Mean external-Abs DC50
Method: The letter codes for BCL-XL DC50 include: A (<0.01 μM); B (0.01-0.1 μM); C (>[…]); D (>0.5-1.0 μM); and E (>1.0 μM). The letter codes for Dmax % include A (>75%); B (50 to 75%); C (<50%).

T1 sequence (Q07817 whole entry): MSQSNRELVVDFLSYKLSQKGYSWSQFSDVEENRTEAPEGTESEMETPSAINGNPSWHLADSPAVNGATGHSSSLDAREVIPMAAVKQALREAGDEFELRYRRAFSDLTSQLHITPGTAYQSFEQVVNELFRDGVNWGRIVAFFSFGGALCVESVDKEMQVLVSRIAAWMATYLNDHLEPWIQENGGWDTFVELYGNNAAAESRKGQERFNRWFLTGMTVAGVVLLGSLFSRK

Compound	pIC50 (MOLT-4 cells; Homo sapiens, MOLT-4, 72 h)	DC50 (BCL-XL [1])	pIC50 (Caki-2 cells)	also measured
Cc1ncsc1-c1ccc([C@H](C)NC(=O)[C@@H]2C[C@@H](O)CN2C(=O)[C@@H](NC(=O)CCCC(=O)N(C)CC#Cc2cccc(F)c2OCCCc2sc(N3CCc4cccc(C(=O)Nc5nc6ccccc6s5)c4C3)nc2C(=O)O)C(C)(C)C)cc1 [I-15]	–	500 to 1000 nM	< 5.00	Dmax (BCL-XL [1]): 50 to 75%
Cc1ncsc1-c1ccc([C@H](C)NC(=O)[C@@H]2C[C@@H](O)CN2C(=O)[C@@H](NC(=O)CCCCCC(=O)N(C)CC#Cc2cccc(F)c2OCCCc2sc(N3CCc4cccc(C(=O)Nc5nc6ccccc6s5)c4C3)nc2C(=O)O)C(C)(C)C)cc1 [I-16]	–	100 to 500 nM	< 5.00	Dmax (BCL-XL [1]): > 75%
Cc1ncsc1-c1ccc([C@H](C)NC(=O)[C@@H]2C[C@@H](O)CN2C(=O)[C@@H](NC(=O)CCCCCCCC(=O)N(C)CC#Cc2cccc(F)c2OCCCc2sc(N3CCc4cccc(C(=O)Nc5nc6ccccc6s5)c4C3)nc2C(=O)O)C(C)(C)C)cc1 [I-17]	–	10 to 100 nM	< 5.00	Dmax (BCL-XL [1]): > 75%
Cc1ncsc1-c1ccc([C@H](C)NC(=O)[C@@H]2C[C@@H](O)CN2C(=O)[C@@H](NC(=O)C2CCN(c3ccc(S(=O)(=O)NC(=O)c4nc(N5CCc6cccc(C(=O)Nc7nc8ccccc8s7)c6C5)ccc4-c4cccc5c4cnn5C(C)C)cc3)CC2)C(C)(C)C)cc1 [I-297]	–	–	5.00 to 6.00	Dmax (BCL-XL [2]): < 50%; DC50 (BCL-XL [2]): 500 to 1000 nM
Cc1ncsc1-c1ccc(CNC(=O)[C@@H]2C[C@@H](O)CN2C(=O)[C@@H](NC(=O)C2(F)CC2)C(C)(C)C)c(OCC(=O)N2CCN(CC[C@H](CSc3ccccc3)Nc3ccc(S(=O)(=O)NC(=O)c4ccc(N5CCN(CC6=C(c7ccc(Cl)cc7)CCC(C)(C)C6)CC5)cc4)cc3S(=O)(=O)C(F)(F)F)CC2)c1 [I-387]	–	10 to 100 nM	< 5.00	Dmax (BCL-XL [1]): > 75%
Cc1ncsc1-c1ccc([C@H](C)NC(=O)[C@@H]2C[C@@H](O)CN2C(=O)[C@@H](NC(=O)CCCCCCC(=O)N2CCN(CC3(C)CCC(c4ccc(Cl)cc4)=C(CN4CCN(c5ccc(C(=O)NS(=O)(=O)c6ccc(N[C@H](CCN7CCOCC7)CSc7ccccc7)c(S(=O)(=O)C(F)(F)F)c6)cc5)CC4)C3)CC2)C(C)(C)C)cc1 (stereo partly shown) [I-399]	–	< 10 nM	–	Bcl-xL ELISA in MOLT-4 degradation 6 h: Average Dmax % (BCL-XL [2]): C (C (<50%)); DC50 (BCL-XL [2]): 100 to 500 nM; pIC50 (MOLT-4 cells): 6.00 to 7.00; Bcl-xL WB in MOLT-4 degradation 16 h: Average Dmax % (BCL-XL [1]): A (A (>75%))
Cc1ncsc1-c1ccc([C@H](C)NC(=O)[C@@H]2C[C@@H](OC(=O)CCP(=O)(O)O)CN2C(=O)[C@@H](NC(=O)CCCS(=O)(=O)NC(=O)c2nc(N3CCc4cccc(C(=O)Nc5nc6ccccc6s5)c4C3)ccc2-c2cnn(CC3CCCCC3)c2C)C(C)(C)C)cc1 [I-411]	–	–	< 5.00	pIC50 (MOLT-4 cells; Homo sapiens, 72 h): 6.00 to 7.00
Cc1cc(N(C)c2ccc(-c3cnn(CC45CC6CC(CC(C6)C4)C5)c3C)c(C(=O)NS(=O)(=O)CCNCCC(=O)N[C@H](C(=O)N3C[C@H](O)C[C@H]3C(=O)N[C@@H](C)c3ccc(-c4scnc4C)cc3)C(C)(C)C)n2)nnc1Nc1nc2ccccc2s1 [I-427]	6.00 to 7.00	–	< 5.00	–
C#Cc1ccc(CNC(=O)[C@@H]2C[C@@H](O)CN2C(=O)[C@@H](NC(=O)CCNCCS(=O)(=O)NC(=O)c2nc(N(C)c3cc(C)c(Nc4nc5ccccc5s4)nn3)ccc2-c2cnn(CC34CC5CC(CC(C5)C3)C4)c2C)C(C)(C)C)c(OCCO)c1 [I-431]	6.00 to 7.00	–	< 5.00	–
Cc1cc(N(C)c2ccc(-c3cnn(CC45CC6CC(CC(C6)C4)C5)c3C)c(C(=O)NS(=O)(=O)CCN3CC(C(=O)N[C@H](C(=O)N4C[C@H](O)C[C@H]4C(=O)N[C@@H](C)c4ccc(-c5scnc5C)cc4)C(C)(C)C)C3)n2)nnc1Nc1nc2ccccc2s1 [I-432]	5.52 to 6.00	–	< 5.00	–
Cc1cc(N2CC(C(=O)N[C@H](C(=O)N3C[C@H](O)C[C@H]3C(=O)NCc3ccc(-c4scnc4C)cc3)C(C)(C)C)C2)ccc1S(=O)(=O)NC(=O)c1nc(N(C)c2cc(C)c(Nc3nc4ccccc4s3)nn2)ccc1-c1cnn(CC23CC4CC(CC(C4)C2)C3)c1C [I-435]	> 7.00	–	< 5.00	–
Cc1cc(N(C)c2ccc(-c3cnn(CC45CC6CC(CC(C6)C4)C5)c3C)c(C(=O)NS(=O)(=O)CCCCCC(=O)N[C@H](C(=O)N3C[C@H](O)C[C@H]3C(=O)N[C@@H](C)c3ccc(-c4scnc4C)cc3)C(C)(C)C)n2)nnc1Nc1nc2cccnc2s1 [I-439]	6.00 to 7.00	–	< 5.00	–
Cc1cc(N(C)c2ccc(-c3cnn(CC4CCCC4)c3C)c(C(=O)NS(=O)(=O)c3ccc(N4CCC(C(=O)N[C@H](C(=O)N5C[C@H](O)C[C@H]5C(=O)N[C@@H](C)c5ccc(-c6scnc6C)cc5)C(C)(C)C)CC4)cc3)n2)nnc1Nc1nc2ccccc2s1 [I-441]	5.52 to 6.00	–	< 5.00	–
Cc1cc(N(C)c2ccc(-c3cnn(CC45CC6CC(CC(C6)C4)C5)c3C)c(C(=O)NS(=O)(=O)CCCN(C)CC(=O)N[C@H](C(=O)N3C[C@H](O)C[C@H]3C(=O)N[C@@H](C)c3ccc(-c4scnc4C)cc3)C(C)(C)C)n2)nnc1Nc1nc2cccnc2s1 [I-448]	6.00 to 7.00	–	< 5.00	–

Further lines, with some results ahead:

pIC50 (MOLT-4 cells; Homo sapiens, MOLT-4, 72 h)	DC50 (BCL-XL [1])	Compound	pIC50 (Caki-2 cells)	also measured
< 5.52	–	Cc1c(-c2ccc(N3CCc4cccc(C(=O)Nc5nc6cccnc6s5)c4C3)nc2C(=O)NS(=O)(=O)CCCCCC(=O)N[C@H](C(=O)N2C[C@H](O)C[C@H]2C(=O)N[C@@H](C)c2ccc(C#N)cc2O)C(C)(C)C)cnn1CC1CCCCC1 (single isomer, unassigned) [I-485]	< 5.00	–
–	100 to 500 nM	Cc1ncsc1-c1ccc([C@H](C)NC(=O)[C@@H]2C[C@@H](O)CN2C(=O)[C@@H](NC(=O)CCCCCC(=O)NCCOc2ccc(C(=O)Nc3nc4ccccc4s3)c3c2CCN(c2ccc(-c4cnn(CC5CCCCC5)c4C)c(C(=O)O)n2)C3)C(C)(C)C)cc1 [I-44]	< 5.00	Dmax (BCL-XL [1]): > 75%
–	< 10 nM	Cc1ncsc1-c1ccc([C@H](C)NC(=O)[C@@H]2C[C@@H](O)CN2C(=O)[C@@H](NC(=O)CCCCCS(=O)(=O)NC(=O)c2nc(N3CCc4cccc(C(=O)Nc5nc6ccccc6s5)c4C3)ccc2-c2cnn(CC3CCCCC3)c2C)C(C)(C)C)cc1 [I-118]	< 5.00	Dmax (BCL-XL [2]): > 75%; DC50 (BCL-XL [2]): < 10 nM; Dmax (BCL-XL [1]): > 75%
6.00 to 7.00	–	Cc1ncsc1-c1ccc(CNC(=O)[C@@H]2C[C@@H](O)CN2C(=O)[C@@H](NC(=O)C2(F)CC2)C(C)(C)C)c(OCCCCCCN(C)C(=O)c2nc(N3CCc4cccc(C(=O)Nc5nc6ccccc6s5)c4C3)ccc2-c2cnn(CC3CCCCC3)c2C)c1 [I-168]	< 5.00	–
< 5.52	–	C#Cc1ccc(CNC(=O)[C@@H]2C[C@@H](O)CN2C(=O)[C@@H](NC(=O)CCCS(=O)(=O)NC(=O)c2nc(N3CCc4cccc(C(=O)Nc5nc6cccnc6s5)c4C3)ccc2-c2cnn(CC(C)C)c2C)C(C)(C)C)cc1 [I-412]	< 5.00	–
< 5.52	–	Cc1ccc(NC(=O)c2cccc3c2CN(c2ccc(-c4cnn(CC5CCCCC5)c4C)c(C(=O)NS(=O)(=O)CCCCCC(=O)N[C@H](C(=O)N4C[C@H](O)C[C@H]4C(=O)N[C@@H](C)c4ccc(-c5scnc5C)cc4)C(C)(C)C)n2)CC3)nc1 [I-458]	< 5.00	–
6.00 to 7.00	–	Cc1ncsc1-c1ccc([C@H](C)NC(=O)[C@@H]2C[C@@H](O)CN2C(=O)[C@@H](NC(=O)CCCCCS(=O)(=O)NC(=O)c2nc(N3CCc4cccc(C(=O)NCc5cnco5)c4C3)ccc2-c2cnn(CC3CCCCC3)c2C)C(C)(C)C)cc1 [I-461]	< 5.00	–
6.00 to 7.00	–	Cc1csc(NC(=O)c2cccc3c2CN(c2ccc(-c4cnn(CC5CCCCC5)c4C)c(C(=O)NS(=O)(=O)CCCCCC(=O)N[C@H](C(=O)N4C[C@H](O)C[C@H]4C(=O)N[C@@H](C)c4ccc(-c5scnc5C)cc4)C(C)(C)C)n2)CC3)n1 [I-462]	< 5.00	–
5.52 to 6.00	–	C#Cc1ccc(CNC(=O)[C@@H]2C[C@@H](O)CN2C(=O)[C@@H](NC(=O)CCCCCS(=O)(=O)NC(=O)c2nc(N3CCc4cccc(C(=O)Nc5nc6cccnc6s5)c4C3)ccc2-c2cnn(CC(C)(C)C)c2C)C(C)(C)C)cc1 [I-468]	< 5.00	–
